Where two headings read alike, the source gives them in different places.
Key:
[1] = target: T1, CDK4-CYCLIND1 (Homo sapiens, UniProt P11802); assay: Inhibition assay, microfluidic LabChip (Nanosyn); assay type: biochemical; details: Table 2; ATP 200 μM; read-out: CDK4 IC50
T1 construct: purchased Invitrogen
Experimental: (§1) The reaction was terminated by the addition of EDTA. The plates were analyzed using a Caliper LabChip 3000.
(§2) Additional inhibition assays were performed as described above.

[2] = target: T2, CDK6-CYCLIND3 (Homo sapiens, UniProt Q00534); assay: Inhibition assay, microfluidic LabChip (Nanosyn); assay type: biochemical; details: ATP 300 μM
T2 construct: purchased Carna
Experimental: as §1, §2

T1 sequence (P11802 whole entry): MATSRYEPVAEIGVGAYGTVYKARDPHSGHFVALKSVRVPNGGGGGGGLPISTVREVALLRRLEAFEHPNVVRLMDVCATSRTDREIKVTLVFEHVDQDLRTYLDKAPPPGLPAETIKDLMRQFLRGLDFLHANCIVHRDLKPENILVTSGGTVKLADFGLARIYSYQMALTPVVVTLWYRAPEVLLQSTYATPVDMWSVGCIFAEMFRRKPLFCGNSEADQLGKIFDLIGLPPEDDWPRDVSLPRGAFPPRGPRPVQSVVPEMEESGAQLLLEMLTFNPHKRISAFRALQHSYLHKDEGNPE
T1 sequence (P24385 whole entry partner): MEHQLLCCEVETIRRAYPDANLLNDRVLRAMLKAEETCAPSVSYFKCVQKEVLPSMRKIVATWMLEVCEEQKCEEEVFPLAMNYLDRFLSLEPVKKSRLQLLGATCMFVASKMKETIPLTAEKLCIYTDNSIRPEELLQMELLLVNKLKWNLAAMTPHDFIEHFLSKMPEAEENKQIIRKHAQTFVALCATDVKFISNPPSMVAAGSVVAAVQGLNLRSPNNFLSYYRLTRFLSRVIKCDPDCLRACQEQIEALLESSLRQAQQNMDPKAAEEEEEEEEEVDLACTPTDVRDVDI
T2 sequence (Q00534 whole entry): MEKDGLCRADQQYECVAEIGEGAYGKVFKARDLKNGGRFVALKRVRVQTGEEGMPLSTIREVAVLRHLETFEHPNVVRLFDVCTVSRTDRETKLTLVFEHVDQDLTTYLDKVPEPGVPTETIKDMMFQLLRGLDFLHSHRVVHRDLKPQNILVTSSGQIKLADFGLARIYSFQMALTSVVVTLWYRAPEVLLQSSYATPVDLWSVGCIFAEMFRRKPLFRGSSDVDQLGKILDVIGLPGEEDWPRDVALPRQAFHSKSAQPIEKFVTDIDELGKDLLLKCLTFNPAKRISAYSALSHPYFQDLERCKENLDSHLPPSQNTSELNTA
T2 sequence (P30281 whole entry partner): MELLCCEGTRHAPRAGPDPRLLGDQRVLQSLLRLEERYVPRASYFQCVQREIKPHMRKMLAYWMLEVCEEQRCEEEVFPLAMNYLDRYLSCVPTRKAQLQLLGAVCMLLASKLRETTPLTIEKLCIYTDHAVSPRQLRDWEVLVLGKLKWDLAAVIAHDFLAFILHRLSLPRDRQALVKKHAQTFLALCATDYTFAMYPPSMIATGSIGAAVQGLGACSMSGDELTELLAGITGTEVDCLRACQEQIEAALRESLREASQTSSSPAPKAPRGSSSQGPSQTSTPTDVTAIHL

Compound | IC50 [1] [nM] | IC50 ([2]; Table 2, read-out: CDK6 IC50) [nM] | IC50 ([2]; CDK6 IC50, Table 2) [nM]
CN(C)C(=O)c1c(F)c2cnc(Nc3ccc(C4=CCNCC4)cn3)nc2n1C1CCCC1 [Compound A22, 7-cyclopentyl-5-fluoro-N,N-dimethyl-2-((1′,2′,3′,6′-tetrahydro-[3,4′-bipyridin]-6-yl)amino)-7H-pyrrolo[2,3-d]pyrimidine-6-carboxamide] | 41.7 | 82 | –
CN(C)C(=O)c1cc2cnc(Nc3ccc(C4=CCNCC4)cn3)nc2n1C12CC(C1)C2 [Compound A13, 7-(bicyclo[1.1.1]pentan-1-yl)-N,N-dimethyl-2-((1′,2′,3′,6′-tetrahydro-[3,4′-bipyridin]-6-yl)amino)-7H-pyrrolo[2,3-d]pyrimidine-6-carboxamide] | 14.7 | 8.29 | –
CN1CCN(c2ccc(Nc3ncc4c(F)c(C(=O)N(C)C)n(C5CCCC5)c4n3)cc2)CC1 [Compound A19, 7-cyclopentyl-5-fluoro-N,N-dimethyl-2-((4-(4-methylpiperazin-1-yl)phenyl)amino)-7H-pyrrolo[2,3-d]pyrimidine-6-carboxamide] | 15.4 | 45.3 | –
CN(C)CCOc1ccc(Nc2ncc3c(F)c(C(=O)N(C)C)n(C4CCCC4)c3n2)cc1 [Compound A7, 7-cyclopentyl-2-((4-(2-(dimethylamino)ethoxy)phenyl)amino)-5-fluoro-N,N-dimethyl-7H-pyrrolo[2,3-d]pyrimidine-6-carboxamide] | 22.2 | 63 | –
CN(C)C(=O)c1cc2cnc(Nc3ccc(N4CCNCC4)cn3)nc2n1C12CC(C1)C2 [Compound A12, 7-(bicyclo[1.1.1]pentan-1-yl)-N,N-dimethyl-2-((5-(piperazin-1-yl)pyridin-2-yl)amino)-7H-pyrrolo[2,3-d]pyrimidine-6-carboxamide] | 12.4 | 10 | –
CN(C)C(=O)c1cc2cnc(Nc3ccc(N4CCNCC4)cc3)nc2n1C12CC(C1)C2 [Compound A16, 7-(bicyclo[1.1.1]pentan-1-yl)-N,N-dimethyl-2-((4-(piperazin-1-yl)phenyl)amino)-7H-pyrrolo[2,3-d]pyrimidine-6-carboxamide] | 2.94 | 7.68 | –
CN(C)C(=O)c1cc2cnc(Nc3ccc(N4CCN(C#N)CC4)cn3)nc2n1C1CCCC1 [Compound A23, 2-((5-(4-cyanopiperazin-1-yl)pyridin-2-yl)amino)-7-cyclopentyl-N,N-dimethyl-7H-pyrrolo[2,3-d]pyrimidine-6-carboxamide] | 34.3 | 97 | –
CN(C)C(=O)c1c(F)c2cnc(Nc3ccc(N4CCOCC4)c(F)c3)nc2n1C1CCCC1 [Compound A20, 7-cyclopentyl-5-fluoro-2-((3-fluoro-4-morpholinophenyl)amino)-N,N-dimethyl-7H-pyrrolo[2,3-d]pyrimidine-6-carboxamide] | 33 | 74.6 | –
CN1CCN(c2cnc(Nc3ncc4c(F)c(C(=O)N(C)C)n(C5CCCC5)c4n3)cc2C(F)(F)F)CC1 [Compound A18, 7-cyclopentyl-5-fluoro-N,N-dimethyl-2-((5-(4-methylpiperazin-1-yl)-4-(trifluoromethyl)pyridin-2-yl)amino)-7H-pyrrolo[2,3-d]pyrimidine-6-carboxamide] | 2740 | 12600 | –
CN1CCN(c2ccc(Nc3ncc4c(F)c(C(=O)N(C)C)n(C5CCCC5)c4n3)nc2)CC1 [Compound A2] | 37.9 | 54.3 | –
CN(C)C(=O)c1cc2cnc(Nc3ccc(N4CCNCC4)c(F)c3)nc2n1C12CC(C1)C2 [Compound A17, 7-(bicyclo[1.1.1]pentan-1-yl)-2-((3-fluoro-4-(piperazin-1-yl)phenyl)amino)-N,N-dimethyl-7H-pyrrolo[2,3-d]pyrimidine-6-carboxamide] | 3.04 | 8.04 | –
CN(C)C(=O)c1cc2cnc(Nc3ccc(OCCN4CCCCC4)cn3)nc2n1C1CCCC1 [Compound A6, 7-cyclopentyl-N,N-dimethyl-2-((5-(2-(piperidin-1-yl)ethoxy)pyridin-2-yl)amino)-7H-pyrrolo[2,3-d]pyrimidine-6-carboxamide] | 15.2 | 36.4 | –
CN(C)C(=O)c1cc2cnc(Nc3ccc(N4CCN5CCC4CC5)cn3)nc2n1C1CCCC1 [Compound A9, 2-((5-(1,4-diazabicyclo[3.2.2]nonan-4-yl)pyridin-2-yl)amino)-7-cyclopentyl-N,N-dimethyl-7H-pyrrolo[2,3-d]pyrimidine-6-carboxamide] | 21 | 54.9 | –
CN1CCN(c2ccc(Nc3ncc4cc(C(=O)N(C)C)n(C56CC(C5)C6)c4n3)cc2)CC1 [Compound A14, 7-(bicyclo[1.1.1]pentan-1-yl)-N,N-dimethyl-2-((4-(4-methylpiperazin-1-yl)phenyl)amino)-7H-pyrrolo[2,3-d]pyrimidine-6-carboxamide] | – | – | 7.08

Now from value to compound, other results behind:

IC50 [1] [nM] | IC50 ([2]; Table 2, read-out: CDK6 IC50) [nM] | Compound | IC50 ([2]; CDK6 IC50, Table 2) [nM]
29.3 | 73.3 | CN(C)C(=O)c1cc2cnc(Nc3ccc(N4CCC(N5CCOCC5)CC4)cc3)nc2n1C12CC(C1)C2 [Compound A45, 7-(bicyclo[1.1.1]pentan-1-yl)-N,N-dimethyl-2-((4-(4-morpholinopiperidin-1-yl)phenyl)amino)-7H-pyrrolo[2,3-d]pyrimidine-6-carboxamide] | –
21.4 | 40.2 | CCN1CCN(Cc2ccc(Nc3ncc4cc(C(=O)N(C)C)n(C56CC(C5)C6)c4n3)nc2)CC1 [Compound A41, 7-(bicyclo[1.1.1]pentan-1-yl)-2-((5-((4-ethylpiperazin-1-yl)methyl)pyridin-2-yl)amino)-N,N-dimethyl-7H-pyrrolo[2,3-d]pyrimidine-6-carboxamide] | –
39.6 | 116 | CN(C)C(=O)c1c(F)c2cnc(Nc3ccc(OCCN4CCCCC4)nc3)nc2n1C1CCCC1 [Compound A27, 7-cyclopentyl-5-fluoro-N,N-dimethyl-2-((6-(2-(piperidin-1-yl)ethoxy)pyridin-3-yl)amino)-7H-pyrrolo[2,3-d]pyrimidine-6-carboxamide] | –
10.1 | 37.4 | CN(C)C(=O)c1c(F)c2cnc(Nc3ccc(OCCN4CCCC4)c(F)c3)nc2n1C1CCCC1 [Compound A33, 7-cyclopentyl-5-fluoro-2-((3-fluoro-4-(2-(pyrrolidin-1-yl)ethoxy)phenyl)amino)-N,N-dimethyl-7H-pyrrolo[2,3-d]pyrimidine-6-carboxamide] | –
8.17 | 32.5 | CC(C)N1CCN(c2ccc(Nc3ncc4c(F)c(C(=O)N(C)C)n(C5CCCC5)c4n3)cc2)CC1 [Compound A36, 7-cyclopentyl-5-fluoro-2-((4-(4-isopropylpiperazin-1-yl)phenyl)amino)-N,N-dimethyl-7H-pyrrolo[2,3-d]pyrimidine-6-carboxamide] | –
> 30000 | > 30000 | CN(C)C(=O)c1c(F)c2cnc(N3CCN(c4ccc(C#N)cc4)CC3)nc2n1C1CCCC1 [Compound A29, 2-(4-(4-cyanophenyl)piperazin-1-yl)-7-cyclopentyl-5-fluoro-N,N-dimethyl-7H-pyrrolo[2,3-d]pyrimidine-6-carboxamide] | –
457 | 1430 | CN(C)C(=O)c1cc2cnc(Nc3cc(C(F)(F)F)c(N4CCNCC4)cn3)nc2n1C1CCCC1 [Compound A24, 7-cyclopentyl-N,N-dimethyl-2-((5-(piperazin-1-yl)-4-(trifluoromethyl)pyridin-2-yl)amino)-7H-pyrrolo[2,3-d]pyrimidine-6-carboxamide] | –
2.45 | 10.1 | CN(C)C(=O)c1cc2cnc(Nc3ccc(C(=O)N4CC[C@H](N(C)C)C4)cc3)nc2n1C12CC(C1)C2 [Compound A44, (S)-7-(bicyclo[1.1.1]pentan-1-yl)-2-((4-(3-(dimethylamino)pyrrolidine-1-carbonyl)phenyl)amino)-N,N-dimethyl-7H-pyrrolo[2,3-d]pyrimidine-6-carboxamide] | –
5.22 | 16.5 | CN(C)C(=O)c1cc2cnc(Nc3ccc(N4CC5(CNC5)C4)c(F)c3)nc2n1C12CC(C1)C2 [Compound A47, 7-(bicyclo[1.1.1]pentan-1-yl)-2-((3-fluoro-4-(2,6-diazaspiro[3.3]heptan-2-yl)phenyl)amino)-N,N-dimethyl-7H-pyrrolo[2,3-d]pyrimidine-6-carboxamide] | –
35.6 | 32.9 | CC(C)N1CC=C(c2ccc(Nc3ncc4cc(C(=O)N(C)C)n(C56CC(C5)C6)c4n3)nc2)CC1 [Compound A43, 7-(bicyclo[1.1.1]pentan-1-yl)-2-((1′-isopropyl-1′,2′,3′,6′-tetrahydro-[3,4′-bipyridin]-6-yl)amino)-N,N-dimethyl-7H-pyrrolo[2,3-d]pyrimidine-6-carboxamide] | –
5.16 | 17.3 | CN1CCN(c2ccc(Nc3ncc4cc(C(=O)N(C)C)n(C56CC(C5)C6)c4n3)cc2F)CC1 [Compound A40, 7-(bicyclo[1.1.1]pentan-1-yl)-2-((3-fluoro-4-(4-methylpiperazin-1-yl)phenyl)amino)-N,N-dimethyl-7H-pyrrolo[2,3-d]pyrimidine-6-carboxamide] | –
1.95 | 10.1 | CN(C)C(=O)c1cc2cnc(Nc3ccc(OCCN4CCCC4)c(F)c3)nc2n1C1CCCC1 [Compound A32, 7-cyclopentyl-2-((3-fluoro-4-(2-(pyrrolidin-1-yl)ethoxy)phenyl)amino)-N,N-dimethyl-7H-pyrrolo[2,3-d]pyrimidine-6-carboxamide] | –
15 | 43.4 | CN(C)C(=O)c1cc2cnc(Nc3ccc(N4CCOCC4)c(F)c3)nc2n1C12CC(C1)C2 [Compound A42, 7-(bicyclo[1.1.1]pentan-1-yl)-2-((3-fluoro-4-morpholinophenyl)amino)-N,N-dimethyl-7H-pyrrolo[2,3-d]pyrimidine-6-carboxamide] | –
52000 | – | CC(C)N1CCN(c2ccc(Nc3ncc4cc(C(=O)N(C)C)n(C56CC(C5)C6)c4n3)cc2)CC1 [Compound A37, 7-(bicyclo[1.1.1]pentan-1-yl)-2-((4-(4-isopropylpiperazin-1-yl)phenyl)amino)-N,N-dimethyl-7H-pyrrolo[2,3-d]pyrimidine-6-carboxamide] | –
